Patent US20110053995A1, “BENZENESULFONANILIDE COMPOUND INHIBITORS OF UREA TRANSPORTERS” (THE REGENTS OF THE UNIVERSITY OF CALIFORNIA, priority 2006, published 2011)

What was measured:
Type in all cases: cell-based
UT-B [1] = molecular target: T1, UT-B (Homo sapiens, UniProt Q13336); assay: RBC lysis assay, human RBCs; details: lysis assay, FIG. 5B, read-out: apparent EC50
T1 construct: a red blood cell (i.e., erythrocyte), which endogenously expresses the urea transporter UT-B; endogenous in cells; host or cells: human red blood cells (whole venous blood, single donor)
T1 sequence (Q13336 1-389): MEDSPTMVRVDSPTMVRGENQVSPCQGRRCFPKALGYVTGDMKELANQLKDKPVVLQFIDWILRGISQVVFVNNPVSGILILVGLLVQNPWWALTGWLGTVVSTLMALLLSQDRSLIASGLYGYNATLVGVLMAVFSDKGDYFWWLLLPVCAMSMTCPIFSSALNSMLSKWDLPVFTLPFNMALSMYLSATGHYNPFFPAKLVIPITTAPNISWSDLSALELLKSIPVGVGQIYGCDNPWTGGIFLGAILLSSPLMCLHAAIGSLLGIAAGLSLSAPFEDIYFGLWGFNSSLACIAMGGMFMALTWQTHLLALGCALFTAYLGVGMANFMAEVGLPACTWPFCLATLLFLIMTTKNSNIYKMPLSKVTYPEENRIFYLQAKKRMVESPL
From the text: Vigorous mixing was achieved by repeated pipetting.

UT-B [2] = molecular target: T1, UT-B; assay: Stopped-flow light scattering, urea transport in human RBCs; details: for inhibition of urea transport, inhibitor added externally only (sidedness): inhibitor only in urea-containing solution at time of stopped-flow; for reversibility of inhibition after washing of RBCs: 10 min pre-incubation (0.1 μM ureainh-101, 0.4 μM ureainh-302), then washout
Protocol: RBC urea and water permeabilities were assayed by stopped-flow light scattering using a Hi-Tech Sf-51 instrument (Wiltshire, UK). […] After an initial osmotic shrinking phase, the kinetics of increasing cell volume caused by urea influx were measured as the time-course of 90° scattered light intensity at 530 nm, with increasing cell volume resulting in reduced scattered light intensity. As a positive control, 0.7 mM phloretin was added to the RBC suspension prior to stopped-flow experiments. Measurements of water permeability were carried out similarly, with sucrose (cell-impermeant) used instead of urea to establish a 250-mM osmotic gradient. As a positive control, HgCl2 (0.3 mM) was added to the RBC suspension prior to stopped-flow measurements. Osmotic water permeability coefficients (Pf) were computed from light scattering data as described (van Hoek et al., J Biol Chem. 267:18267-69 (1992)).
After repeating the 96-well plate RBC lysis assay to confirm compound activity (see Example 2), bona fide urea transport inhibition was determined by stopped-flow light scattering from the kinetics of urea influx (RBC swelling) in response to an inwardly directed urea gradient. Rapid mixing of an RBC suspension with a hyperosmolar solution containing excess 250 mM urea produced rapid cell shrinking due to osmotic water efflux, followed by cell swelling as urea (and water) influx occurred.
To determine EC50 values for urea transport inhibition directly, RBC urea transport was measured by stopped-flow light scattering using a non-saturating concentration of extracellular urea (to avoid possible competition effects). EC50 for inhibition of RBC urea transport was determined independently by comparing stopped-flow light scattering curves to a model of cell shrinking-swelling. […]
The two coupled differential equations describing water efflux and solute influx in response to externally added urea or methylurea were numerically integrated using the forward Euler method (Δt=0.01 s) to reproduce the biphasic changes in cell volume observed experimentally. […] For each time step, a new cell volume (normalized to the initial size; V(i+1)/V(0)) and a new cell permeant concentration (U(i+1)) were calculated from V(i+1)/V(0)=V(i)/V(0)−Δt·Pf·(S/V(0))·vw·[Ie(1−V(i)/V(0))+(Ue−Uc(i))] and Uc(i+1)=Uc(i)/V(0)−Δt·Us·(S/V(0))·vw·(Ue−Uc(i)). […] The product of Pf and the surface area-to-volume ratio (S/V(0)) was determined to be 3.4×10^2 s^−1 and 8.5×10^2 s^−1 for human and mouse erythrocytes, respectively, from water permeability measurements. […]

mouse UT-B = molecular target: T2, mouse UT-B (Mus musculus, UniProt Q8VHL0); assay: Stopped-flow light scattering, N-methylurea transport in mouse RBCs
T2 construct: the indicator cells are red blood cells that endogenously express the UT-B urea transporter; endogenous in cells; host or cells: red blood cells of wild-type CD1 mice
T2 sequence (Q8VHL0 1-384): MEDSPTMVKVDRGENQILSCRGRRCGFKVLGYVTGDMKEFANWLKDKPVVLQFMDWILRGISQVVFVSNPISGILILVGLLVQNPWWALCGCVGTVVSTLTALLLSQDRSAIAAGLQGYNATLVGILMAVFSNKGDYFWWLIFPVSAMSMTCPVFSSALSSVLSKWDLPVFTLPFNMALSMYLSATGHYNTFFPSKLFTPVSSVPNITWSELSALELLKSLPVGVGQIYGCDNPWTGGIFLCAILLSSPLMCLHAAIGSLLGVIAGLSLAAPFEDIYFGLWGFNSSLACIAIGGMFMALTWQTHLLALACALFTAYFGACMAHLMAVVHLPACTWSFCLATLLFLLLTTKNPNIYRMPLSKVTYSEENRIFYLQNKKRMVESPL
Protocol: As a positive control, 0.7 mM phloretin was added to the RBC suspension prior to stopped-flow experiments. Measurements of water permeability were carried out similarly, with sucrose (cell-impermeant) used instead of urea to establish a 250-mM osmotic gradient. As a positive control, HgCl2 (0.3 mM) was added to the RBC suspension prior to stopped-flow measurements. Osmotic water permeability coefficients (Pf) were computed from light scattering data as described (van Hoek et al., J Biol Chem. 267:18267-69 (1992)).
For stopped-flow experiments, a 100-mM gradient of urea (for human RBCs) or N-methylurea (for mouse RBCs) was used to minimize competition effects (apparent urea and N-methylurea affinities at 23° C. are approximately 200 and approximately 100 mM, respectively) (Mayrand et al., J Gen Physiol. 81:221-37 (1983)). N-methylurea, with greater than 2-fold slower RBC permeability than urea, was used in mouse studies to better resolve overlapping water and urea transport kinetics. Dose-response data were also collected for human RBCs using a high concentration of 1 M urea to distinguish between competitive vs. non-competitive inhibitor binding.
For these studies using mouse RBCs, methylurea was used as the transported solute instead of urea because its transport is slower, allowing better estimation of EC50 values.

Row | SMILES | EC50 (UT-B [1]) [nM] | inhibition of urea transport, inhibitor added externally only (sidedness) (UT-B [2]; 0.2 μM) | reversibility of inhibition after washing of RBCs (UT-B [2]) | inhibitory potency against mouse UT-B (mouse UT-B) | inhibition of urea transport, inhibitor added externally only (sidedness) (UT-B [2]; 0.1 μM)
1 | Cc1ccc(Nc2nnc(-c3ccc(C(N)=O)cc3)c3ccccc23)cc1 [ureainh-302] | 100 | had a sizable effect | fully reversible inhibition | good inhibitory potencies | 
2 | NC(=O)CSc1oc(-c2ccccc2)nc1S(=O)(=O)c1ccc(Br)cc1 [ureainh-101] | 30 |  | fully reversible inhibition | good inhibitory potencies | did not inhibit urea transport
